Experiments:
H4K5Ac = target: T1, H4K5Ac (Homo sapiens, UniProt P62805); assay: Histone peptide pull-down assay; format: binding; settings: lysates of human fibroblasts overexpressing the protein
T1 construct: Histone tails used for peptide pull-down experiments; Peg-biotin (chemical label); expressed in transfected cells; host or cells: human BJ fibroblasts transduced with BRD3R lentivirus (lysate)
Experimental: (§1) • Histone peptide pull-down assay: H3 or H4 histone tails with 8 different acetylation modifications were evaluated for binding with BRD3R and BRD3. One unmodified tail for each histone was used for negative control.
(§2) Human BJ fibroblasts were transduced with BRD3 or BRD3R viruses. Three days post-transduction, cells were lysed by non-denaturing lysis buffer (20 mM HEPES pH 7.9, 150 mM NaCl, 1 mM MgCl2, 0.5% NP40, 10 mM NaF, 0.2 mM NaVO4, 10 mM β-glycerol phosphate, 5% glycerol, 1 mM DTT, 1 mM PMSF and protease inhibitors). Twenty μg of the cell lysates were incubated with 1 μg biotinylated peptide in 300 μl binding buffer (50 mM Tris pH 7.5, 150 mM NaCl, 0.1% NP-40, 1 mM PMSF and protease inhibitors) at 4° C. for overnight. The next day, 30 μl of Dynabeads M-280 Streptavidin was added into each sample (Invitrogen, 11205D). The mixture of proteins, antibodies and beads were further incubated with gentle rotation at 4° C. for 1 h. The beads were then washed with binding buffer three times. The bound proteins were resuspended in 60 μl of 2× SDS sample buffer. The pull-down proteins were analyzed by western using antibody of BRD3 (Proteintech, 11859-1-AP). Two micrograms of cell lysates were loaded as input control. For semi-quantification, band density was normalized to the corresponding inputs.

[1] = target: T2, tetra-acetylated H4 (H4K5/8/12/16Ac) (Homo sapiens, UniProt P62805); assay: Histone peptide pull-down assay; format: binding; settings: lysates of human fibroblasts overexpressing BRD3R or BRD3; western with BRD3 antibody
T2 construct: Histone tails used for peptide pull-down experiments; Peg-biotin (chemical label); incubated with lysate of human BJ fibroblasts transduced with BRD3R or BRD3 virus
Experimental: as §1, §2

H3K9Ac = target: T3, H3K9Ac (Homo sapiens, UniProt P68431); assay: Histone peptide pull-down assay; format: binding; settings: lysates of human fibroblasts overexpressing the protein
T3 construct: Histone tails used for peptide pull-down experiments; expressed in transfected cells; host or cells: human BJ fibroblasts transduced with BRD3R lentivirus (lysate)
Experimental: as §1, §2

[2] = target: T4, biacetylated H3 (H3K9/14Ac) (Homo sapiens, UniProt P68431); assay: Histone peptide pull-down assay; format: binding; settings: lysates of human fibroblasts overexpressing the protein
T4 construct: Histone tails used for peptide pull-down experiments; expressed in transfected cells; host or cells: human BJ fibroblasts transduced with BRD3R lentivirus (lysate)
Experimental: as §1, §2

H3K14Ac = target: T5, H3K14Ac (Homo sapiens, UniProt P68431); assay: Histone peptide pull-down assay; format: binding; settings: lysates of human fibroblasts overexpressing the protein
T5 construct: Histone tails used for peptide pull-down experiments; expressed in transfected cells; host or cells: human BJ fibroblasts transduced with BRD3R lentivirus (lysate)
Experimental: as §1, §2

reprogramming BJ cells = assay: RNA sequencing of cells on day 3 of reprogramming; format: cell-based, human
Experimental: • RNA sequencing: mRNA sequencing was performed on the Illumina HiSeq2500 using the sequencing reagents and flow cells providing up to 300 Gb of sequence information per flow cell. Briefly, the quality of the total RNA was assessed using the Agilent 2100 Bioanalyzer followed by 2 rounds of polyA+ selection and conversion to cDNA. The stranded mRNA library generation kits were used per manufacturer's instructions (Agilent, Santa Clara, Calif.). Library construction consists of random fragmentation of the polyA mRNA, followed by cDNA production using random primers with inclusion of Actinomycin D in the first strand reaction. The ends of the cDNA are repaired, polyA-tailed and adaptors ligated for indexing (4 different barcodes per lane) during the sequencing runs. The cDNA libraries were quantitated using qPCR in a Roche LightCycler 480 with the Kapa Biosystems kit for library quantitation (Kapa Biosystems, Woburn, Mass.) prior to cluster generation. Clusters were generated to yield approximately 725 K to 825 K clusters/mm^2. Cluster density and quality were determined during the run after the first base addition parameters were assessed. Paired end 2×50 bp sequencing runs were run to align the cDNA sequences to the reference genome.
• Bioinformatics: 25-65 million of paired 51 bp reads were obtained for each sample. RNA sequencing reads were mapped to the human reference genome (GRCh37/hg19) using TopHat (v2.0.13) (Kim et al., (2013) Genome Biol. 14: R36). For more accurate mapping, the mean insert sizes and the standard deviations were calculated using Picard-tools (v1.126), and were passed to the mapper along with a Gene Transfer File (GTF version GRCh37.70) and the data were re-aligned. Read count tables were generated using HT-seq (v0.6.0) (Anders et al., (2015) Bioinformatics 31: 166-169). Deferential Expression (DE) analysis was performed using DESeq (v3.0) (Anders & Huber (2010) Genome Biol. 11: R106). Cufflinks v2.2.1 (Trapnell et al., (2010) Nat. Biotechnol. 28: 511-515) and Cummerbund v3.0 (Goff et al., (2014): Visualization and Exploration of Cufflinks High-throughput Sequencing Data., pp. 45) were also used for calculating expression levels in FPKM and data visualization. The BigWig files were generated using Bedtools (v2.17.0) (Quinlan & Hall (2010) Bioinformatics 26: 841-842) and bedGraphToBigWig tool (v4). For the analysis of micro-array data, Limma v3.0 (Smyth G. K., (2005) in Bioinformatics and Computational Biology Solutions Using R and Bioconductor: Gentleman et al., Eds. (Springer: New York): Ch. 23: pp. 397-420) was used Gene Ontology (GO) analysis was conducted using PANTHER (Mi et al., (2013) Nat. Protoc. 8: 1551-1566), Cytoscape-BiNGO (Saito et al., (2012) Nat. Methods 9: 1069-1076) and DAVID (Huang da et al., (2009) Nat. Protoc. 4: 44-57). Lists of mitotic genes were compiled based on the results from the three tools.

Human fibroblasts = assay: CyQUANT cell proliferation assay of reprogramming cells; format: cell-based; settings: before day 9 of reprogramming
Experimental: • Cell proliferation assays: Human fibroblasts were transduced with reprogramming viruses. Forty-eight hs post transduction, the reprogramming cells were plated at 4,000 cells/well of a 96-well plate. Five replicates were performed for each condition. On days 0, 1, 3, 5, 7, 9, 11 and 13, the cells were measured using a CyQUANT® NF Cell Proliferation Assay Kit (Life Technologies; c35007) per manufacturer's instruction.

For “BRD3R: BRD3 with Reprogramming activity; 556 aa isoform of human BRD3 (AAH32124, SEQ ID NO: 47), encoded by cDNA L61”, the “binding to H4K5Ac peptide” value (H4K5Ac) was “weakly”, the “binding to H4K5/8/12/16Ac peptide” value [1] was “bound strongly” and the “binding to H3K9Ac peptide” value (H3K9Ac) was “bound”. For the same substance, the “binding to H3K9/14Ac peptide” value [2] was “bound very weakly”, the “binding to H3K14Ac peptide” value (H3K14Ac) was “bound” and the “expression of CDKN2A, CDKN2B, CDKN1A, TP53 (p53-p21 pathway)” value (reprogramming BJ cells; BRD3R reprogramming cells) was “Downregulation was not seen”. For the same substance, the “AFC of CEP78” value (reprogramming BJ cells; day 3 of reprogramming) was 0.94 ×, the “AFC of ERG” value (reprogramming BJ cells; day 3 of reprogramming) was 0.84 × and the “AFC of PSMB9” value (reprogramming BJ cells; day 3 of reprogramming) was 0.87 ×. The “number of upregulated genes in the mitotic category” value (reprogramming BJ cells; of 335 GO mapped genes, day 3) was 128 genes, the “AFC of the 23 always upregulated mitotic genes” value (reprogramming BJ cells; p<0.05, day 3) was “at least 2.24 ×” and the “total mitotic genes statistically upregulated in at least one comparison” value (reprogramming BJ cells; ≥1.5×, p<0.05, 4 IFC and 1 AFC comparisons, day 3) was 185 genes. For the same substance, the “number of genes upregulated in BRD3R-expressing cells” value (reprogramming BJ cells; ≥1.7×, p<0.05, ADNRC≥50, day 3) was 401 genes and the “overall proliferation rate vs control cells” value (Human fibroblasts) was “comparable overall proliferation rates”.

Source: US20180163180A1, “METHOD OF ENHANCING SOMATIC CELL REPROGRAMMING WITH THE ACETYLLYSINE READER BRD3R” (THE UAB RESEARCH FOUNDATION, INC ., priority 2015, published 2018)
